The record followed here is patent US10065941B2, “Aminotriazine derivative and pharmaceutical composition comprising the same” (Shionogi & Co., Ltd., priority 2013, dated 2018).

Data set [1] concerns the target human ether-a-go-go related gene (hERG) channel (Homo sapiens (Human), UniProt Q12809). The data set can be described thus: hERG test, whole cell patch clamp in CHO cells (Test Example 13). To be noted: CHO cells expressing hERG channel, tail peak current, 10 minutes. The class given is cell-based. An excerpt:
For the purpose of assessing risk of an electrocardiogram QT interval prolongation of the compound of the present invention, effects of the compound of the present invention on delayed rectifier K+ current (IKr), which plays an important role in the ventricular repolarization process, was studied using CHO cells expressing human ether-a-go-go related gene (hERG) channel.
After a cell was retained at a membrane potential of −80 mV by whole cell patch clamp method using an automated patch clamp system (QPatch; Sophion Bioscience A/S) and gave a leak potential of −50 mV, IKr induced by depolarization pulse stimulation at +20 mV for 2 seconds and, further, repolarization pulse stimulation at −50 mV for 2 seconds, was recorded. […] From the recording IKr, an absolute value of the tail peak current was measured based on the current value at the resting membrane potential using analysis software (Falster Patch; Sophion Bioscience A/S). Further, the % inhibition relative to the tail peak current before application of the compound of the present invention was calculated, and compared with the vehicle-applied group (0.1% dimethyl sulfoxide solution) to assess influence of the compound of the present invention on IKr.

The next data set has as its target rat P2X3 receptor (Rattus norvegicus (Rat), UniProt P49654). The data set can be described thus: Evaluation of rat P2X3 receptor inhibitory activity (Test Example 3). In kind it is cell-based. The settings on record: rat P2X3 receptor gene expressed in C6BU-1 cell; read-out: ratP2X3 IC50. As for the experimental part: Rat P2X3 receptor gene (GenBank accession number NM_031075) was expressed in C6BU-1 cell. The C6BU-1 cells were seeded in a 96-well microtiter plate at a concentration of 2500 cells/well and cultured in the medium (7.0% fetal bovine serum, 7.0% horse serum, and 1% antibiotic and antifungal in DMEM) for one day at 37° C. under 5% carbon dioxide atmosphere. The plasmid was transfected into the cells using transfection reagent FuGENE6 (Promega). The transfected cells were cultured in the medium for one day at 37° C. under 5% carbon dioxide atmosphere. […] Measurement of fluorescence intensity by FDSS 3000 was started, and 40 μL of DMSO solutions containing different concentrations of the test compound as prepared by dilution with dilution buffer (20 mM HEPES, 137 mM NaCl, 5.27 mM KCl, 0.9 mM MgCl2, 1.26 mM CaCl2, 5.6 mM D-glucose, 2.5 mM probenecid, 0.1% Pluronic F-127, pH7.5) were dispensed to each well through the built-in automatic dispenser. Five minutes after, 50 nM ATP solution (50 μL) prepared by dilution with the dilution buffer was dispensed through the built-in automatic dispenser, and the measurement of fluorescence intensity was continued for 4 min. For each well, the specific maximum fluorescence intensity was calculated as the ratio of the maximum fluorescence intensity after addition of the ATP solution to the fluorescence intensity at the starting of the measurement. […]

A further data set deals with human P2X3 receptor (Homo sapiens (Human), UniProt P56373). Put plainly: Evaluation of human P2X3 receptor inhibitory activity (Test Example 1). The class given is cell-based. The settings on record: C6BU-1 cell transfected with human P2X3 receptor gene, FLIPR 384. In short, it runs like this: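 C6BU-1 cells stably expressing human P2X3, loaded with 4 μM Fluo-3-AM 1 h at 37 °C, preincubated 5 min with test compound, then stimulated with 150 nM ATP solution (stock, pre-dispense) and monitored by FLIPR for 4 min. IC50 derived from maximum fluorescence ratio (post-ATP peak over baseline).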

Data set [2] in a line: Metabolism stability test, pooled human hepatic microsomes (Test Example 11). In kind it is in vitro ADME. To be noted: human liver microsomes, 30 minutes, compound concentration 0.5 μmol/L. As for the experimental part: Using commercially available pooled human hepatic microsomes, a test compound is reacted for a constant time, a remaining rate is calculated by comparing a reacted sample and an unreacted sample, thereby, a degree of metabolism in liver is assessed.
A reaction was performed (oxidative reaction) at 37° C. for 0 minute or 30 minutes in the presence of 1 mmol/L NADPH in 0.2 mL of a buffer (50 mmol/L tris-HCl pH 7.4, 150 mmol/L potassium chloride, 10 mmol/L magnesium chloride) containing 0.5 mg protein/mL of human liver microsomes. After the reaction, 50 μL of the reaction solution was added to 100 μL of a methanol/acetonitrile=1/1 (v/v), mixed and centrifuged at 3000 rpm for 15 minutes. The test compound in the supernatant was quantified by LC/MS/MS, and a remaining amount of the test compound after the reaction was calculated, letting a compound amount at 0 minute reaction time to be 100%.
The remaining rate at the compound concentration 0.5 μmol/L are shown below.

Data set [3] can be described thus: Pharmacokinetic test: bioavailability and total body clearance (Test Example 15). The settings on record: SD rats, from AUCs of oral and intravenous groups. The class given is in vivo. As for the experimental part: • (1) Animals: SD rats were used • (2) Breeding conditions: SD rats were allowed to freely take solid food and sterilized tap water. • (3) Dose and grouping: orally or intravenously administered at a predetermined dose; grouping was as follows (Dose depends on the compound)
Oral administration: 1 mg/kg (n=2)
The total body clearance (CLtot) was calculated by dividing the dose by the AUC of the intravenous administration group.

Data set [4] relates to partial sciatic nerve ligation model in rats. Put plainly: Analgesic effect in a Seltzer model, Evaluation (1): mechanical allodynia, von Frey filaments (Test Example 6). In kind it is in vivo. To be noted: rat Seltzer model, reversal of mechanical allodynia (von Frey), single oral administration of 1 mg/kg, at 3 hours. An excerpt: Rats were anaesthetized using isoflurane/O2 inhalation anaesthesia. After induction of anesthesia, the left thigh was shaved. An incision was made in the skin just below the hip bone. The muscle was bluntly dissected to expose the sciatic nerve. One third (⅓) to one half (½) of the sciatic nerve thickness was tightly ligated and the wound was closed. The right thigh is used as a sham-operated control. The right thigh undergoes an identical procedure with the left hind limb, however, the sciatic nerve is not manipulated or ligated.
Two weeks after nerve ligation, the effect on mechanical allodynia was assessed using a series of von Frey filaments. For habituation, the rats were placed into a plastic cage on a wire mesh bottom. The mechanical sensitivity (mechanical threshold) of the hind paws was estimated with a series of von Frey filaments (0.4-26 g). The measurement of mechanical sensitivity of the right and left hind paws was performed to obtain predose mechanical sensitivity. […] On the day before the experiment, the rats were evaluated with a series of von Frey filaments to familiarize them with the test procedure. […] Post-dose mechanical sensitivities of the right and left hind paws were measured at approximately 1 to 5 hours after drug administration. Percent reversal of mechanical allodynia for each rat was calculated using the following formula. […]

Sequence of human P2X3 receptor (P56373 whole entry): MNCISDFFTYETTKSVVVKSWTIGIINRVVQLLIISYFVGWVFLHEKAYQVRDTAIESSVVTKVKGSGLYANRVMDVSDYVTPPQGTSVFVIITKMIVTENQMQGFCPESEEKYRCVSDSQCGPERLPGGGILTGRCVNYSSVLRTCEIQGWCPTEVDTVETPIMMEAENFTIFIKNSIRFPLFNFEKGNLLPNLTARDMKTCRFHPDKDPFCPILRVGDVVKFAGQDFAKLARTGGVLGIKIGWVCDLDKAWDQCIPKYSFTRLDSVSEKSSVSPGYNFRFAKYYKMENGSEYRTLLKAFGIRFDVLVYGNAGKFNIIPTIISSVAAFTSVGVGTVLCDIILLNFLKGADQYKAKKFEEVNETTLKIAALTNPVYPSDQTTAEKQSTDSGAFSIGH
Sequence of human ether-a-go-go related gene (hERG) channel (Q12809 whole entry): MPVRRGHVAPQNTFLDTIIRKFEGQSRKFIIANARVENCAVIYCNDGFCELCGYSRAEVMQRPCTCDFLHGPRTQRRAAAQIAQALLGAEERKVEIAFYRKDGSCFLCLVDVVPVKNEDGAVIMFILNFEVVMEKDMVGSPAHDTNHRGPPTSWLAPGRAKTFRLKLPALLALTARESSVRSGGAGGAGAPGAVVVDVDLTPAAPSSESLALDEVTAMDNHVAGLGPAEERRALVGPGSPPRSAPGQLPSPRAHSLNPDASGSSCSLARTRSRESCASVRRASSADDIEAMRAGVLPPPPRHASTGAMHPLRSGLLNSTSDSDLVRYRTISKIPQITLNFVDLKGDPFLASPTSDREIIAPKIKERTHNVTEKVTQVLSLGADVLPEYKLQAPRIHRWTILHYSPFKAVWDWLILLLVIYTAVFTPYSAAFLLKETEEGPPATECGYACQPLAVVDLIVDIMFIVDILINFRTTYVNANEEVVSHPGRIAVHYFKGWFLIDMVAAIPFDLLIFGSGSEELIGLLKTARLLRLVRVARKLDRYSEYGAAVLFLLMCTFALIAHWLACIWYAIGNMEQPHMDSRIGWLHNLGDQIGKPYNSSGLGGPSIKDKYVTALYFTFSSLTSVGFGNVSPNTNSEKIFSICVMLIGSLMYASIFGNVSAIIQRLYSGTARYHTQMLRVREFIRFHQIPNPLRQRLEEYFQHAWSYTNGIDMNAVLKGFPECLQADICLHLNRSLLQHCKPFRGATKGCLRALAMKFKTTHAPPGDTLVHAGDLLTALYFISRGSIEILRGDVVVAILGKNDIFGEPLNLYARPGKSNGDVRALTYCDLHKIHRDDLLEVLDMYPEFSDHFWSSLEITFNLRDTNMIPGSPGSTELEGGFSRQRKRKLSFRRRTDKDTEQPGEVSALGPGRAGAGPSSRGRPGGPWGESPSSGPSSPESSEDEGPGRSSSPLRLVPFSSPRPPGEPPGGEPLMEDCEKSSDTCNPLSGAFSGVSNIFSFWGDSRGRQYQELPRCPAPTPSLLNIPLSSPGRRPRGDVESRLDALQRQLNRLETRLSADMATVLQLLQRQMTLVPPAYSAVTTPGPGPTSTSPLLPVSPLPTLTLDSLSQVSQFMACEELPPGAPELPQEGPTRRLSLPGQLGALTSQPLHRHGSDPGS
Sequence of rat P2X3 receptor (P49654 whole entry): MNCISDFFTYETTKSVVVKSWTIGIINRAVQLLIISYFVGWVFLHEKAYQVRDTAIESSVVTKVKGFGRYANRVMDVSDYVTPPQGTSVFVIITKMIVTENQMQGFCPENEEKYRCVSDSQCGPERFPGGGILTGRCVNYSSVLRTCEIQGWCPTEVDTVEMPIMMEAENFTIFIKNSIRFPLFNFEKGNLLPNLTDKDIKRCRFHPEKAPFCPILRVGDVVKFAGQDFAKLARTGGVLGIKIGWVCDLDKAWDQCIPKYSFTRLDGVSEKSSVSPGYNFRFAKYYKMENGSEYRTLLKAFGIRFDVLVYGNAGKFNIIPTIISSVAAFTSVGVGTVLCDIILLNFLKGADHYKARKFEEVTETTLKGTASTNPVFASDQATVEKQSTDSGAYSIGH

With `C[C@@H](C(=O)O)[C@H](C)n1c(=O)[nH]/c(=N\c2ccc(Oc3ccc(F)cn3)c(F)c2)n(Cc2ccc(Cl)cc2)c1=O` [Compound I-002], the “hERG Inhibition” value in data set [1] is recorded as 7.3%. The IC50 on rat P2X3 receptor amounted to 6 nM; on human P2X3 receptor it was 5 nM. Also, the “Metabolism Stability (remaining rate)” value in data set [2] is given as 99%.
As for `CC(C)(Cn1c(=O)[nH]/c(=N\c2ccc(Oc3ccc(Cl)cn3)cc2)n(Cc2ccc(Cl)cc2)c1=O)C(=O)O` [Compound I-006], the “hERG Inhibition” value in data set [1] amounted to 5.3%. This compound displayed an IC50 at human P2X3 receptor of 5 nM.
`Cc1ccc(Cn2c(=O)n(C[C@H](C)C(=O)O)c(=O)[nH]/c2=N\c2ccc(Oc3cccc(F)n3)cc2)cc1` [Compound I-057] registered a BA in data set [3] of 66.4%. For the same compound, the “% reversal” value in data set [4] stood at 21.4%. Also, at human P2X3 receptor, inhibition was half-maximal at 5 nM (IC50). In addition, the “Metabolism Stability (remaining rate)” value in data set [2] turned out to be 91%.

What is called IC50 is the concentration needed to halve the response being measured.
